Experimental data taken from patent US11208412B2 (DAEGU-GYEONGBUK MEDICAL INNOVATION FOUNDATION, priority 2017, dated 2021).

Assays:
Assay in all cases: Kinase selectivity, DiscoverX scanMAX Kinase assay panel (% control)
Type in all cases: binding
[1] = biological target: T1, kinases of the scanMAX Kinase assay panel (Homo sapiens, UniProt O94806); conditions: PRKD3; 1 uM
T1 construct: purchased DiscoverX Co. (contract measurement) scanMAX Kinase assay panel
T1 sequence (O94806 1-890): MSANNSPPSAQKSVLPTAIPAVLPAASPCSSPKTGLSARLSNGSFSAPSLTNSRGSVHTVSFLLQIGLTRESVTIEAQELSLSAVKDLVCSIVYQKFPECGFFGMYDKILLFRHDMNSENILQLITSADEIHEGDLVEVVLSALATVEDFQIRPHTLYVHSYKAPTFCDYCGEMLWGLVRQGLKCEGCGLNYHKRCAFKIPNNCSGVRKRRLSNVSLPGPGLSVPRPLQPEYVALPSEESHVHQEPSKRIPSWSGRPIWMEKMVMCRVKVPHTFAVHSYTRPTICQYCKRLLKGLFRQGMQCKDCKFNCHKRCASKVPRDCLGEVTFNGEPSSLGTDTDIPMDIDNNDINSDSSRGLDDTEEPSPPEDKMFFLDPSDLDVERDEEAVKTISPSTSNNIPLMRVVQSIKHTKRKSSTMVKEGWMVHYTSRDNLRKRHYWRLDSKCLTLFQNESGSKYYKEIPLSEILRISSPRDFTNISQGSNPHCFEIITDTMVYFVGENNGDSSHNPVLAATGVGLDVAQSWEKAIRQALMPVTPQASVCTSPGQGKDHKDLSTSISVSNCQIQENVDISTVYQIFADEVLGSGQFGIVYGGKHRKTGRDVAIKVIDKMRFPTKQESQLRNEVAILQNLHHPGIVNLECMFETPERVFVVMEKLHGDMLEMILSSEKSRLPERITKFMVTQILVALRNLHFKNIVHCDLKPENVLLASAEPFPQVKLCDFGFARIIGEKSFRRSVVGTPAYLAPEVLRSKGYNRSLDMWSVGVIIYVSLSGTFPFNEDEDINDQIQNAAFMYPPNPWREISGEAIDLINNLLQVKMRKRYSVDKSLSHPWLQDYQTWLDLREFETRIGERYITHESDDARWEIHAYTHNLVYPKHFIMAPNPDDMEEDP
How it was run: (§1)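 Single-point screen, 1 uM cpd in DMSO. % ctrl = (cpd − pos ctrl)/(neg ctrl − pos ctrl)×100; pos ctrl = 0%, DMSO neg ctrl = 100%. Hit cutoff <35%.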

[2] = biological target: T2, kinases of the scanMAX Kinase assay panel (Homo sapiens, UniProt Q9NYY3); conditions: PLK2; 1 uM
T2 construct: purchased DiscoverX Co. (contract measurement) scanMAX Kinase assay panel
T2 sequence (Q9NYY3 whole entry): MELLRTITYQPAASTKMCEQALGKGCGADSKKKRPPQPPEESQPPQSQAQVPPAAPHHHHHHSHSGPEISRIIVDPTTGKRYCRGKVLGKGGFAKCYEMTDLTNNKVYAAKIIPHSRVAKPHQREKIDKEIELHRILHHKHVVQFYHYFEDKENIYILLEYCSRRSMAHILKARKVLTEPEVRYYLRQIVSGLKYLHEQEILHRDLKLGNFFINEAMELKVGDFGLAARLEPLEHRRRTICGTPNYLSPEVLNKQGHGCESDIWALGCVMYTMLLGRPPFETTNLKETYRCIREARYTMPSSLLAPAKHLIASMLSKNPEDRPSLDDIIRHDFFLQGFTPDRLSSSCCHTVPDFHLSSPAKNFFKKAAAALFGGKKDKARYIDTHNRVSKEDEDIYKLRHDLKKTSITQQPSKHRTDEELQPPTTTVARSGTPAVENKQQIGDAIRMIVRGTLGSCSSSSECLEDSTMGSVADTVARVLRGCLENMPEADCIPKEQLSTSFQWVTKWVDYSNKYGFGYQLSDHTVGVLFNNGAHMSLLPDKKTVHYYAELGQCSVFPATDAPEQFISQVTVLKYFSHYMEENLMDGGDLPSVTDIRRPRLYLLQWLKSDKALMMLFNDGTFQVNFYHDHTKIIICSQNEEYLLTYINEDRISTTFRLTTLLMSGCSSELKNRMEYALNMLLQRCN
How it was run: as §1

[3] = biological target: T3, kinases of the scanMAX Kinase assay panel (Homo sapiens, UniProt P36888, N841I); conditions: FLT3(N841I); 1 uM
T3 construct: purchased DiscoverX Co. (contract measurement) scanMAX Kinase assay panel
T3 sequence (P36888 27-993 N841I): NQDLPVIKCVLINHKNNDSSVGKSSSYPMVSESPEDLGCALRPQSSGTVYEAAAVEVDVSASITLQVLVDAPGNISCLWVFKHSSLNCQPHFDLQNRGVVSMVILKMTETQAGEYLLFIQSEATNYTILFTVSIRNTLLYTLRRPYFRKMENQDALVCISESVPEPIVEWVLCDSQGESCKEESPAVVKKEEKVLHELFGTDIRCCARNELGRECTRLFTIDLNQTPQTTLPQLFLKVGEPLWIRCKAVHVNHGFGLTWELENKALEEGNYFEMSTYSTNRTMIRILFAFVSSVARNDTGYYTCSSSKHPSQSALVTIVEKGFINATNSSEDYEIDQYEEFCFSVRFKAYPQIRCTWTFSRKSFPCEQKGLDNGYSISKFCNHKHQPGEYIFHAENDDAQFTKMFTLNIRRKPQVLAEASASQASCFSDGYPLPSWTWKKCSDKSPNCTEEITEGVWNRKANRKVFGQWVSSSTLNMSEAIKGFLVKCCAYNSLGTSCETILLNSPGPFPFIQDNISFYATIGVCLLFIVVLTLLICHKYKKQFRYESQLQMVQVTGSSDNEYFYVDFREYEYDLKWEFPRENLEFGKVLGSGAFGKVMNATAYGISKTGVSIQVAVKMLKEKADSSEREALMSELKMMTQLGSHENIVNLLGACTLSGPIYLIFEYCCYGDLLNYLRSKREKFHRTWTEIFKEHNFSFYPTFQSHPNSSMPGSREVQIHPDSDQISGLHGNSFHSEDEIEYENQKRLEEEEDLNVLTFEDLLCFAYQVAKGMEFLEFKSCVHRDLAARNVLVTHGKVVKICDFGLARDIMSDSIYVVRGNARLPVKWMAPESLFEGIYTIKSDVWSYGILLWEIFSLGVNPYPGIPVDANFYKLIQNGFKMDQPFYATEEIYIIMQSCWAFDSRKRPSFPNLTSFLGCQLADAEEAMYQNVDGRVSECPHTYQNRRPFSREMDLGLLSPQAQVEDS
How it was run: as §1

[4] = biological target: T4, kinases of the scanMAX Kinase assay panel (Homo sapiens, UniProt P22607, G697C); conditions: FGFR3(G697C); 1 uM
T4 construct: purchased DiscoverX Co. (contract measurement) scanMAX Kinase assay panel
T4 sequence (P22607 23-806 G697C): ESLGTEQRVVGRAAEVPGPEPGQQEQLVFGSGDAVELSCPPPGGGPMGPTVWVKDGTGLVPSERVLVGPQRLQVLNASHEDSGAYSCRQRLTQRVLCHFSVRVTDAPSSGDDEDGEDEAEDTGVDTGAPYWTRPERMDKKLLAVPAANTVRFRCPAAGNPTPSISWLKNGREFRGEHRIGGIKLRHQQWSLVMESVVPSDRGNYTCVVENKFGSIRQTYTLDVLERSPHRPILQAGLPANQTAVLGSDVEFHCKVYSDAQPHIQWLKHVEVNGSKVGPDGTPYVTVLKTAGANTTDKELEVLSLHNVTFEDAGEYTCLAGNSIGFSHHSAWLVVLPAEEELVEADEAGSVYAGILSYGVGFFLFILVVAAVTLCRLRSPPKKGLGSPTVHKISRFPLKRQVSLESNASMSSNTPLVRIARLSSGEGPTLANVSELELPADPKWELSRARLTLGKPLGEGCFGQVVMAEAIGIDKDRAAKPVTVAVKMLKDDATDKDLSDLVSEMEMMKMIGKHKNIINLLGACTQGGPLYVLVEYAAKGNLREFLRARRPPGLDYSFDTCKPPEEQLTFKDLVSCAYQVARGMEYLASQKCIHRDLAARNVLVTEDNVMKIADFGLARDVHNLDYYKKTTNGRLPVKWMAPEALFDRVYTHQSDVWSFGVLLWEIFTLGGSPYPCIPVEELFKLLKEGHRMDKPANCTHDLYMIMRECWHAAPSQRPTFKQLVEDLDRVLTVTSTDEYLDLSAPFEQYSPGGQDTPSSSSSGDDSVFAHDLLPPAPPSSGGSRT
How it was run: as §1

[5] = biological target: T5, kinases of the scanMAX Kinase assay panel (Homo sapiens, UniProt Q99640); conditions: PKMYT1; 1 uM
T5 construct: purchased DiscoverX Co. (contract measurement) scanMAX Kinase assay panel
T5 sequence (Q99640 1-499): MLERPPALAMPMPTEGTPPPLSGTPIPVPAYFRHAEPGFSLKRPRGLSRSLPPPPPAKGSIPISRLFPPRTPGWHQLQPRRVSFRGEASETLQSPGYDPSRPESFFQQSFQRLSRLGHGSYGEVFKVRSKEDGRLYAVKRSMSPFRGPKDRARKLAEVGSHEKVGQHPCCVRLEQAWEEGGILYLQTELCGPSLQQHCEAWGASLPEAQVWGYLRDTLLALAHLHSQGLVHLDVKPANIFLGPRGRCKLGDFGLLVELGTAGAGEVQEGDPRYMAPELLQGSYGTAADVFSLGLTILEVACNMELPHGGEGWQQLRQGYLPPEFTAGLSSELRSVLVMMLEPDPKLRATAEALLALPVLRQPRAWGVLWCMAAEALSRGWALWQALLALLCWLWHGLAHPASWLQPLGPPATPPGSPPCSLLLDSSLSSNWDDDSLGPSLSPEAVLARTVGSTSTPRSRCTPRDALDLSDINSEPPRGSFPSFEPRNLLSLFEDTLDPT
How it was run: as §1

[6] = biological target: T6, kinases of the scanMAX Kinase assay panel (Homo sapiens, UniProt P42336, E542K); conditions: PIK3CA(E542K); 1 uM
T6 construct: purchased DiscoverX Co. (contract measurement) scanMAX Kinase assay panel
T6 sequence (P42336 whole entry E542K): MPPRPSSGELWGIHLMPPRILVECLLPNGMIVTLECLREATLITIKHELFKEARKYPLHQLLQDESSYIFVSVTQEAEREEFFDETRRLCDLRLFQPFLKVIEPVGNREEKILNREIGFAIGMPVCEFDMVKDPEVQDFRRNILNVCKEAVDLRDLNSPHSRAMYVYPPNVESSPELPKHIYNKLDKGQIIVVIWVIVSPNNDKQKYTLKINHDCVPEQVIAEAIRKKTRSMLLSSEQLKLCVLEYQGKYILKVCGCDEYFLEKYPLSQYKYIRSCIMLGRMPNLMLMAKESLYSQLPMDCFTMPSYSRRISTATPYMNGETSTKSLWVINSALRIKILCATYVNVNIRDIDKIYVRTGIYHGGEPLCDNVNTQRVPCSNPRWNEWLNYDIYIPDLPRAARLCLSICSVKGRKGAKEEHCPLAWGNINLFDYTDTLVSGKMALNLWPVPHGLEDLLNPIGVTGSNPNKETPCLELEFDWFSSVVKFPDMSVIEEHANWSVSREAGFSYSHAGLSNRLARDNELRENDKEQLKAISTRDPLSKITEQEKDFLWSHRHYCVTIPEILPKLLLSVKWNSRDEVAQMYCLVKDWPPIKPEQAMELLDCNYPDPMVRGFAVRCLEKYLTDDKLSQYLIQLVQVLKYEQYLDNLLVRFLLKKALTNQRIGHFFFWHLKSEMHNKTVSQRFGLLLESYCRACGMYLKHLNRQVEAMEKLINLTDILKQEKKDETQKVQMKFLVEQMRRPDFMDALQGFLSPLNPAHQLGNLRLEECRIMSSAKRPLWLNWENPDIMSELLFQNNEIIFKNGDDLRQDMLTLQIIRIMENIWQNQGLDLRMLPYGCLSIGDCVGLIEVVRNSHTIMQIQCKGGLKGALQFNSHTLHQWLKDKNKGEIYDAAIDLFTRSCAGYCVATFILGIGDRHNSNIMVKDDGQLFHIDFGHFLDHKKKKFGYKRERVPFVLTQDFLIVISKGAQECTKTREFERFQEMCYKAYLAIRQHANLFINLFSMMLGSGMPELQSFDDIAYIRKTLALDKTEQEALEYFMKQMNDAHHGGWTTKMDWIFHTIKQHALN
How it was run: as §1

Compound	remaining binding at 1 µM [1]	remaining binding at 1 µM [2]	remaining binding at 1 µM [3]	remaining binding at 1 µM [4]	remaining binding at 1 µM [5]	remaining binding at 1 µM [6]
CCNc1nc(Nc2ccc(C(=O)N3CCC(N4CCOCC4)CC3)cc2OC)nc2[nH]cc(C(F)(F)F)c12 [Example 104, (4-((4-(ethylamino)-5-(trifluoromethyl)-7H-pyrrolo[2,3-d]pyrimidine-2-yl)amino)-3-methoxyphenyl)(4-morpholinopiperidine-1-yl)methanone]	17%	100%	51%	100%	100%	83%
CNc1nc(Nc2ccc(C(=O)N3CCOCC3)cc2OC)nc2[nH]cc(C#N)c12 [Example 1, 2-((2-methoxy-4-(morpholine-4-carbonyl)phenyl)amino)-4-(methylamino)-7H-pyrrolo[2,3-d]pyrimidine-5-carbonitrile]	39%	81%	90%	97%	99%	74%
CC1(Nc2nc(Nc3cnn([C@H]4CCN(C5COC5)C[C@@H]4F)c3Cl)nc3[nH]cc(C#N)c23)CC1 [Example 52, 2-((5-chloro-1-((3S,4S)-3-fluoro-1-(oxetane-3-yl)piperidine-4-yl)-1H-pyrazole-4-yl)amino)((1-methylcyclopropyl)amino)-7H-pyrrolo[2,3-d]pyrimidine-5-carbonitrile]	0.7%	93%	0%	11%	89%	77%
